The values that follow come from patent US20250042920A1 (OCEAN UNIVERSITY OF CHINA, priority 2021, published 2025).

One experiment addresses MNK1 (Homo sapiens, UniProt Q9BUB5). The experiment can be described thus: MNK1 kinase inhibition assay (LANCE Ultra kinase activity assay, PerkinElmer). Format: biochemical. Particulars: 450 μM ATP; for pIC50: five concentrations 10000-1 nM; for inhibition at 1 µM: inhibition rate at 1000 nM compound, 60 min, 25° C., read-out: Inhibitory activity(1 μM) MNK1. As for the experimental part: (§1) MNK1 and MNK2 kinase inhibition assays were performed using LANCE Ultra kinase activity assay developed by PerkinElmer. […] The test steps are as follows: At 25° C., 1.00 ng MNK1 or 0.05 ng MNK2 was prepared with different concentrations (10000, 1000, 100, 10, 1 nM) of the tested compound to form a total volume of 10 μL reaction mixture (MNK1: 12.5 nM CREB, 450 μM ATP, 2 mM DTT, 1× buffer; MNK2: 12.5 nM CREB, 100 μM ATP, 2 mM DTT, 1×buffer), and incubation for 60 min. The reaction was terminated by adding 5 μL EDTA/Detection buffer and 5 μL Eu-CREB/Detection buffer. The ratio of HTRF signals at 615 nm and 665 nm was detected after 60 min of incubation. The inhibition rate was calculated by measuring the compounds at 1000 nM.
(§2) Then five different concentrations (10000, 1000, 100, 10, 1 nM) of the tested compounds were measured, and the IC50 value was calculated according to the inhibition rate fitting curve.

A further experiment addresses MNK2 (Homo sapiens, UniProt Q9HBH9). The experiment can be described thus: MNK2 kinase inhibition assay (LANCE Ultra kinase activity assay, PerkinElmer). It is filed as biochemical. Particulars: 100 μM ATP; for pIC50: five concentrations 10000-1 nM; for inhibition at 1 µM: inhibition rate at 1000 nM compound, 60 min, 25° C., read-out: Inhibitory activity(1 μM) MNK2. As for the experimental part:
as §1, §2
Background: Time-resolved FRET reads energy transfer from a long-lived donor to a nearby acceptor.

pIC50: −log10 of the molar value. Where only a bound is given, the exact number is not on record here.

Chain of MNK1 (Q9BUB5 whole entry): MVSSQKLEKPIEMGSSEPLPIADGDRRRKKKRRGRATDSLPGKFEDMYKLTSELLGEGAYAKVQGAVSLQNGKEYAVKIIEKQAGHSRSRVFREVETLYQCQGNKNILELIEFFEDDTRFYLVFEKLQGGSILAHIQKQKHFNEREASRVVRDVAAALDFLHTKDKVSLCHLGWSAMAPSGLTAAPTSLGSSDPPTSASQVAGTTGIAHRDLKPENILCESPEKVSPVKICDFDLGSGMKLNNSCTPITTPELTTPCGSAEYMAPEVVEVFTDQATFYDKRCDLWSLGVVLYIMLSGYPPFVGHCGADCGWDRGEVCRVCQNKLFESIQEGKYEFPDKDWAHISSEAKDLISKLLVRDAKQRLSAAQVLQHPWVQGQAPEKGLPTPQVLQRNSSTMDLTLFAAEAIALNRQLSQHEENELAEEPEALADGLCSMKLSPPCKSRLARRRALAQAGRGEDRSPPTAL
Chain of MNK2 (Q9HBH9 whole entry): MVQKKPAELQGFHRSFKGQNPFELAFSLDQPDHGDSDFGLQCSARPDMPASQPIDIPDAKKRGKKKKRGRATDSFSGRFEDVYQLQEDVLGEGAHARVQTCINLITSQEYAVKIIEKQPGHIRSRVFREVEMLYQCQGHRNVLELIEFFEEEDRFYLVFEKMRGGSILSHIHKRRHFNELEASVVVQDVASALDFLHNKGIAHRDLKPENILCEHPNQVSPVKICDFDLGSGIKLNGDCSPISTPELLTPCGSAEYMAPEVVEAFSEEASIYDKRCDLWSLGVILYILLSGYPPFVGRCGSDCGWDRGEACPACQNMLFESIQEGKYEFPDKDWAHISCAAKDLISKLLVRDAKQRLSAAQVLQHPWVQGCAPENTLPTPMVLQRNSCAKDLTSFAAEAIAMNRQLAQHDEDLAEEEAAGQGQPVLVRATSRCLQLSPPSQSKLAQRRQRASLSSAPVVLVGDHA

Usually pIC50 stands for the negative decadic logarithm of the IC50, by convention in mol/L. Read a low pIC50 as a large IC50. On to `CN1CCN(C(=O)c2ccc(-c3nn4c(-c5ccc(C(F)(F)F)c(F)c5)cnc4s3)cc2)CC1` [Compound 23, (4-(5-(3-fluoro-4-(trifluoromethyl)phenyl)imidazo[2,1-b][1,3,4]thiadiazol-2-yl)phenyl)(4-methylpiperazin-1-yl)methanone], for which, on MNK1, the pIC50 was 6.10 to 6.70 and the inhibition at 1 µM was greater than 75%. On MNK2, the pIC50 was 6.10 to 6.70 and the inhibition at 1 µM is greater than 75%.
As for `CN1CCN(C(=O)c2ccc(-c3nn4c(-c5ccc(C#N)c(F)c5)cnc4s3)cc2)CC1` [Compound 24, 2-fluoro-4-(2-(4-(4-methylpiperazine-1-carbonyl)phenyl)imidazo[2,1-b][1,3,4]thiadiazol-5-yl)benzonitrile], the pIC50 at MNK1 and against MNK2 was 6.70 to 7.30 throughout. For the same compound, the inhibition at 1 µM on MNK1 and at MNK2 was greater than 75% in each case.
Consider `Cc1ccc(-c2cnc3sc(-c4ccc(C(=O)N5CCOCC5)cc4)nn23)cc1` [Compound 7, morpholino(4-(5-(p-tolyl)imidazo[2,1-b][1,3,4]thiadiazol-2-yl)phenyl)methanone], for which the inhibition at 1 µM on MNK1 and at MNK2 was greater than 75% each time.
Take `CN(C)C1CCN(C(=O)c2ccc(-c3nn4c(-c5ccc(C(F)(F)F)cc5)cnc4s3)cc2)CC1` [Compound 16]: at MNK1, the pIC50 is greater than 7.30 and the inhibition at 1 µM was greater than 75%. Besides, at MNK2, the negative-log IC50 (pIC50) was greater than 7.30 and the inhibition at 1 µM is greater than 75%.
Regarding `N#Cc1ccc(-c2cnc3sc(-c4ccc(C(=O)N5CCOCC5)cc4)nn23)cc1` [Compound 1, 4-(2-(4-(morpholine-4-carbonyl)phenyl)imidazo[2,1-b][1,3,4]thiadiazol-5-yl)benzonitrile], at MNK1, the pIC50 is greater than 7.30 and the inhibition at 1 µM was greater than 75%. Moreover, on MNK2, the pIC50 is greater than 7.30 and the inhibition at 1 µM is greater than 75%.
On to `COC(=O)c1ccc(-c2cnc3sc(-c4ccc(C(=O)N5CCN(C)CC5)cc4)nn23)cc1` [Compound 19, methyl 4-(2-(4-(4-methylpiperazine-1-carbonyl)phenyl)imidazo[2,1-b][1,3,4]thiadiazol-5-yl)benzoate], for which the pIC50 at MNK1 is 6.10 to 6.70; at MNK2, 6.70 to 7.30. The inhibition at 1 µM at MNK1 and at MNK2 was greater than 75% each time.
For the compound `CN(C)C1CCN(C(=O)c2ccc(-c3cn4c(-c5ccc(C(F)(F)F)cc5)csc4n3)cc2)CC1` [Compound 54, (4-(dimethylamino)piperidin-1-yl)(4-(3-(4-(trifluoromethyl)ph-enyl)imidazo [2,1-b]thiazol-6-yl)phenyl)methanone], the inhibition at 1 µM at MNK1 and at MNK2 was 25 to 50% each time.
On to `O=C(c1ccc(-c2nn3c(-c4ccc(F)c(F)c4)cnc3s2)cc1)N1CCOCC1` [Compound 11, (4-(5-(3,4-difluorophenyl)imidazo[2,1-b][1,3,4]thiadiazol-2-yl)phenyl)(morpholino)methanone], for which the inhibition at 1 µM on MNK1 and on MNK2 was greater than 75% in each case.
For the compound `CN1CCN(C(=O)c2ccc(-c3nn4c(-c5ccc([N+](=O)[O-])cc5)cnc4s3)cc2)CC1` [Compound 25, (4-methylpiperazin-1-yl)(4-(5-(4-nitrophenyl)imidazo[2,1-b][1,3,4]thiadiazol-2-yl)phenyl)methanone], the pIC50 on MNK1 and against MNK2 was greater than 7.30 each time. Further, the inhibition at 1 µM at MNK1 and at MNK2 was greater than 75% throughout.
As to `N#Cc1ccc(-c2cnc3sc(-c4ccc(C(=O)NCCO)cc4)nn23)cc1` [Compound 40, 4-(5-(4-cyanophenyl)imidazo[2,1-b][1,3,4]thiadiazol-2-yl)-N-(2-hydroxyethyl)benzamide], the pIC50 against MNK1 and against MNK2 was greater than 7.30 each time. For the same compound, the inhibition at 1 µM on MNK1 and on MNK2 was greater than 75% in each case.
On to `CN1CCN(C(=O)c2ccc(-c3nn4c(-c5ccc(C(F)(F)F)cc5)cnc4s3)cc2)CC1` [Compound 21, (4-methylpiperazin-1-yl)(4-(5-(4-(trifluoromethyl)phenyl)imidazo[2,1-b][1,3,4]thiadiazol-2-yl)phenyl)methanone], for which, on MNK1, the pIC50 is greater than 7.30 and the inhibition at 1 µM is greater than 75%. Also, at MNK2, the pIC50 was greater than 7.30 and the inhibition at 1 µM was greater than 75%.
For the compound `CN1CCN(C(=O)c2ccc(-c3cn4c(-c5ccc(C(F)(F)F)cc5)csc4n3)cc2)CC1` [Compound 50, (4-methylpiperazin-1-yl)(4-(3-(4-(trifluoromethyl)phenyl)imidazo[2,1-b]thiazol-6-yl)phenyl)methanone], the inhibition at 1 µM on MNK1 and on MNK2 was 25 to 50% throughout.
As for `CN1CCN(C(=O)c2ccc(-c3nn4c(-c5ccc(C#N)cc5)cnc4s3)cc2)CC1` [Compound 17, 4-(2-(4-(4-methylpiperazine-1-carbonyl)phenyl)imidazo[2,1-b][1,3,4]thiadiazol-5-yl)benzonitrile], at MNK1, the pIC50 was greater than 7.30 and the inhibition at 1 µM is greater than 75%. Also, on MNK2, the pIC50 was greater than 7.30 and the inhibition at 1 µM was greater than 75%.
For `N#Cc1ccc(-c2cnc3sc(-c4ccc(C(=O)SCCO)cc4)nn23)cc1` [Compound 35, S-(2-hydroxyethyl)4-(5-(4-cyanophenyl)imidazo[2,1-b][1,3,4]thiadiazol-2-yl)benzothioate], the inhibition at 1 µM at MNK1 and at MNK2 was 25 to 50% in each case.
For `COC(=O)c1ccc(-c2cnc3sc(-c4ccc(C(=O)N5CCOCC5)cc4)nn23)cc1` [Compound 4], the inhibition at 1 µM at MNK1 and at MNK2 was greater than 75% throughout.
On to `CN1CCN(C(=O)c2ccc(-c3nn4c(-c5ccc(C(F)(F)F)nc5)cnc4s3)cc2)CC1` [Compound 29, (4-methylpiperazin-1-yl)(4-(5-(6-(trifluoromethyl)pyridin-3-yl)imidazo[2,1-b][1,3,4]thiadiazol-2-yl)phenyl)methanone], for which the inhibition at 1 µM at MNK1 and on MNK2 was 25 to 50% in each case.
For the compound `N#Cc1ccc(-c2cnc3sc(-c4ccc(C(=O)NCCCN5CCOCC5)cc4)nn23)cc1` [Compound 37, 4-(5-(4-cyanophenyl)imidazo[2,1-b][1,3,4]thiadiazol-2-yl)-N-(3-morpholinopropyl)benzamide], at MNK1, the pIC50 was greater than 7.30 and the inhibition at 1 µM was greater than 75%. Besides, on MNK2, the pIC50 was greater than 7.30 and the inhibition at 1 µM was greater than 75%.
Consider `CN(C)CCNC(=O)c1ccc(-c2nn3c(-c4ccc(C#N)cc4)cnc3s2)cc1` [Compound 36, 4-(5-(4-cyanophenyl)imidazo[2,1-b][1,3,4]thiadiazol-2-yl)-N-(2-(dimethylamino)ethyl)benzamide], for which the pIC50 on MNK1 and against MNK2 was greater than 7.30 each time. Besides, the inhibition at 1 µM at MNK1 and at MNK2 was greater than 75% each time.
In the case of `O=C(c1ccc(-c2nn3c(-c4ccc(Cl)cc4)cnc3s2)cc1)N1CCOCC1` [Compound 6, (4-(5-(4-chlorophenyl)imidazo[2,1-b][1,3,4]thiadiazol-2-yl)phenyl)(morpholino)methanone], the pIC50 against MNK1 and at MNK2 was 6.70 to 7.30 each time. Also, the inhibition at 1 µM on MNK1 and at MNK2 was greater than 75% in each case.
For `CN1CCN(C(=O)c2ccc(-c3cn4c(-c5ccc(C#N)cc5)csc4n3)cc2)CC1` [Compound 48, 4-(6-(4-(4-methylpiperazine-1-carbonyl)phenyl)imidazo[2,1-b]thiazol-3-yl)benzonitrile], the inhibition at 1 µM at MNK1 and at MNK2 was 25 to 50% each time.
`CN1CCN(C(=O)c2ccc(-c3cn4c(-c5ccc(Cl)cc5)csc4n3)cc2)CC1` [Compound 51, (4-(3-(4-chlorophenyl)imidazo[2,1-b]thiazol-6-yl)phenyl)(4-methylpiperazin-1-yl)methanone]: the inhibition at 1 µM at MNK1 and at MNK2 was 25 to 50% throughout.
Regarding `O=C(c1ccc(-c2nn3c(-c4ccc(O)cc4)cnc3s2)cc1)N1CCOCC1` [Compound 3, (4-(5-(4-hydroxyphenyl)imidazo[2,1-b][1,3,4]thiadiazol-2-yl)phenyl)(morpholino)methanone], on MNK1, the negative logarithm of the IC50 (pIC50) is greater than 7.30 and the inhibition at 1 µM is greater than 75%. At MNK2, the pIC50 was greater than 7.30 and the inhibition at 1 µM was greater than 75%.
`O=C(c1ccc(-c2nn3c(-c4ccc(C(F)(F)F)cc4)cnc3s2)cc1)N1CCOCC1` [Compound 5, morpholino(4-(5-(4-(trifluoromethyl)phenyl)imidazo[2,1-b][1,3,4]thiadiazol-2-yl)phenyl)methanone]: the pIC50 on MNK1 and at MNK2 was 6.70 to 7.30 each time. Also, the inhibition at 1 µM on MNK1 and at MNK2 was greater than 75% each time.
Consider `CC1CCCCN1C(=O)c1ccc(-c2nn3c(-c4ccc(C#N)cc4)cnc3s2)cc1` (stereo not drawn) [Compound 41, 4-(2-(4-(2-methylpiperidine-1-carbonyl)phenyl)imidazo[2,1-b][1,3,4]thiadiazol-5-yl)benzonitrile], for which, on MNK1, the pIC50 was greater than 7.30 and the inhibition at 1 µM was greater than 75%. On MNK2, the pIC50 is greater than 7.30 and the inhibition at 1 µM was greater than 75%.
